Among the data in a melting point compilation (Tetko et al.) are melting point values, retold here.

The conditions of this data set: a range is the spread between reports.

Molecules are shown by their SMILES.

Regarding `C=Cc1ccc([N+](=O)[O-])cc1`, the melting point was 27 to 29 °C.

As to `ClC(Cl)(Cl)c1ccccc1`, the melting point was -8 to -4 °C.

Take `CC(C)COC(=O)C(C)C`: the melting point is -81 to -80 °C.

Take `CN(C)C=O`: the melting point was -61 to -60.4 °C.

Compound `c1ccc(-c2ccccc2)cc1` returned a melting point of 69 to 71 °C.

Compound `C=CC(=O)OC` showed a melting point of -76.5 to -75 °C.

With `CCOP(=S)(OCC)Oc1nc(Cl)c(Cl)cc1Cl`, the melting point was in the range of 41.5 to 42.5 °C.

Regarding `CC(CO)(CO)[N+](=O)[O-]`, the melting point was found to be 150 °C.

`Clc1ccccc1C(Cl)(Cl)Cl` gave a melting point of 29 to 30 °C.

For `O=Cc1ccc([N+](=O)[O-])cc1`, the melting point is 105 to 108 °C.

`CC(Oc1cccc(Cl)c1)C(=O)O` (stereo not given): the melting point was in the range of 113 to 115 °C.

`O=c1[nH]c(=O)n(C2CC(O)C(CO)O2)cc1F` (stereo not given) registered a melting point of 150 °C.

`CN1CCCC1=O` gave a melting point of -24 to -23 °C.

Compound `Oc1cccc2ccccc12` showed a melting point of 95 to 96 °C.

Compound `CNC(=O)CSP(=S)(OC)OC` showed a melting point of 51.5 to 52 °C.

Compound `c1ccc(Cn2ccnc2)cc1` registered a melting point of 69 to 71 °C.

Compound `O=Cc1ccccc1` showed a melting point of -56.9 to -55.6 °C.

In turn, `COC(=O)NN` registered a melting point of 72 to 73 °C.

`Oc1cccc(Nc2ccccc2)c1` displayed a melting point of 80 to 81.5 °C.

The compound `c1ccc(-c2ccc3ccccc3n2)cc1` registered a melting point of 83 to 86 °C.

As to `O=Cc1cc(Br)cc(Br)c1O`, the melting point lay in the range of 83 to 86 °C.

`NNC(=O)NN` showed a melting point of 154 to 158 °C.

In the case of `COc1cc(CCC(C)=O)ccc1O`, the melting point fell in the range of 40.5 to 41 °C.

In turn, `Clc1ccc(Cl)c(Cl)c1Cl` returned a melting point of 47 to 47.5 °C.

`CC(C)(C)c1ccc(N)cc1` gave a melting point of 15 to 17 °C.

The compound `CCc1ccccc1N` had a melting point of -47 to -44 °C.

With `c1ccncc1`, the melting point was -42 to -41.6 °C.

As for `Nc1c(Cl)cc([N+](=O)[O-])cc1[N+](=O)[O-]`, the melting point lay in the range of 154 to 157 °C.

As for `Fc1cc(F)cc(F)c1`, the melting point was -6 to -5.5 °C.

With `CCOC(=O)c1ccco1`, the melting point is 34 to 34.5 °C.

Turning to `c1ccc(C2CCCCC2)cc1`, the melting point lay within 5 to 7.3 °C.

Regarding `COc1ccc(C(C)=O)cc1OC`, the melting point fell in the range of 49 to 51 °C.

As to `CC(CO)(CO)C(=O)O`, the melting point fell in the range of 189 to 190 °C.

Compound `O=Cc1ccc2ccccc2c1` showed a melting point of 61 to 62 °C.

With `CC(CCC(=O)O)CC(=O)O` (stereo not given), the melting point was in the range of 100 to 101 °C.

`CCc1cc(C)cc(C)c1` returned a melting point of -84.3 to -84 °C.

Turning to `ClC(Cl)=C(Cl)C(Cl)(Cl)Cl`, the melting point is -73 to -72.9 °C.

On to `CCCCCCCCS`, for which the melting point is -49.2 to -49 °C.

Compound `O=Cc1ccccc1Cl` came in with a melting point of 9 to 12.4 °C.

The compound `c1ccc(-c2ccncc2)nc1` yielded a melting point of 61 to 61.5 °C.

The compound `N#Cc1ccc(C=O)cc1` returned a melting point of 100 to 102 °C.

As to `Nc1ccncc1N`, the melting point was in the range of 216 to 220 °C.

As for `CC(C)(C)c1ccc(Br)cc1`, the melting point is 16 to 19 °C.

On to `O=C1c2ccccc2Cc2ccccc21`, for which the melting point fell in the range of 155 to 157 °C.

With `C#CCCO`, the melting point is -63.6 to -63 °C.

For the compound `FC(C(F)(F)F)C(F)(F)F`, the melting point is -131 to -127 °C.

Consider `CCCCCCCC`, for which the melting point is -57 to -56.8 °C.

The compound `CCOc1ccccc1` returned a melting point of -30 to -29.5 °C.

Regarding `O=[N+]([O-])c1ccc(O)c(F)c1`, the melting point is 119 to 121 °C.

In the case of `CCCNC(=O)NS(=O)(=O)c1ccc(Cl)cc1`, the melting point turned out to be 128 °C.

With `Oc1ccccc1O`, the melting point lay in the range of 105 to 106 °C.

`CCOC(N)=O` displayed a melting point of 48 to 49 °C.

Compound `CC(=O)C(C)(C)C` returned a melting point of -53 to -52 °C.

As to `Nc1cccc(Oc2ccccc2)c1`, the melting point is 36 to 37 °C.

Take `Cc1cc(C(=O)O)ccc1N`: the melting point was 170 °C.

For `COC1=C(OC)C(=O)C(C)=CC1=O`, the melting point was 58.5 to 59.5 °C.

For the compound `O=C(C[N+](=O)[O-])Nc1ccccc1`, the melting point was in the range of 93 to 94 °C.

`C(=Nc1ccccc1)Nc1ccccc1` registered a melting point of 138 to 142 °C.

As to `CCCCC(N)=O`, the melting point lay within 103 to 106 °C.

For the compound `CCN(CC)c1ccccc1`, the melting point was -38.8 to -38 °C.

On to `CC(C)=C(C)C(C)C`, for which the melting point was -113 °C.

In the case of `CCCC(N)C(=O)O` (racemic), the melting point was 303 to 307 °C.

As to `NC(=O)C(Cl)Cl`, the melting point was in the range of 99 to 99.4 °C.

Take `CC(C)C(=O)c1ccccc1`: the melting point was -1.3 to 1 °C.

Compound `CC(C)(C)CCC(C)(C)C` had a melting point of -13 to -12.6 °C.

`O=S1(=O)CCCC1` registered a melting point of 27 to 27.6 °C.

`c1cnc2[nH]ccc2c1` gave a melting point of 105 to 106 °C.

Consider `Cc1c[nH]c(=O)[nH]c1=O`, for which the melting point is 316 to 317 °C.

Consider `CCCCCCC(O)C(=O)O` (stereo not given), for which the melting point lay in the range of 69 to 70 °C.

As to `CO[C@@H]1O[C@H](CO)[C@H](O)[C@H](O)[C@H]1O`, the melting point fell in the range of 172 to 177 °C.

Consider `CCCCCC(=O)CCCCC`, for which the melting point lay in the range of 14.5 to 15 °C.

Compound `CCCCCCCCCCCCCC(=O)OCC` registered a melting point of 12 to 12.3 °C.

Take `CCc1ccc(C)nc1`: the melting point is -71 to -70.9 °C.

The compound `COc1cc(CO)ccc1O` gave a melting point of 114 to 115 °C.

Take `COc1ccc(/N=N/c2ccccc2)cc1`: the melting point was 53 to 56 °C.

Regarding `CC(CC(=O)O)CC(=O)O`, the melting point is 86 to 87 °C.

Compound `NS(=O)(=O)c1ccc([N+](=O)[O-])cc1` gave a melting point of 179 to 180 °C.

Consider `O=[N+]([O-])c1cc([N+](=O)[O-])c2ccccc2c1O`, for which the melting point was in the range of 131 to 132 °C.

In turn, `Cc1ccc2c(c1N)C(=O)c1ccccc1C2=O` came in with a melting point of 205 to 206 °C.

On to `O=Cc1ccc(Cl)cc1`, for which the melting point is 46 to 48.5 °C.

`CCS` came in with a melting point of -148 °C.

As for `COc1ccc(Cl)cc1N`, the melting point lay within 82 to 83 °C.

Turning to `CC(C)(C)C1CCCCC1`, the melting point is -41.2 to -41 °C.

`c1ccc2sccc2c1` showed a melting point of 30 to 32 °C.

Consider `CN(C)c1ccc(C(=O)c2ccc(N(C)C)cc2)cc1`, for which the melting point fell in the range of 175 to 179 °C.

Regarding `CC(C)OC(=O)Nc1ccccc1`, the melting point is 87.3 to 88 °C.

`CNC(=O)Oc1cccc2c1OC(C)(C)C2` returned a melting point of 151 to 152 °C.

In the case of `Oc1cccc(Br)c1`, the melting point was in the range of 30 to 33 °C.

On to `O=C(O)CBr`, for which the melting point fell in the range of 47 to 50 °C.

With `O=C(Cl)c1ccccc1F`, the melting point lay within 4 to 5 °C.

The compound `CCC(CC)C(C)(C)C` gave a melting point of -99.3 to -99 °C.

In turn, `O=C(c1ccccc1)c1ccc(-c2ccccc2)cc1` displayed a melting point of 100 to 101 °C.

Regarding `O=C1OCc2ccccc21`, the melting point lay within 74 to 75 °C.

Compound `C(#Cc1ccccc1)c1ccccc1` displayed a melting point of 60 to 63 °C.

For the compound `CCCc1ccccc1C`, the melting point is -60.3 to -60 °C.

For `COc1cc(C#N)cc(OC)c1OC`, the melting point fell in the range of 93 to 94 °C.

Compound `CC(C)(C(=O)O)c1ccccc1` came in with a melting point of 79 to 81 °C.

`CC(C)N(CCC(C(N)=O)(c1ccccc1)c1ccccn1)C(C)C` (stereo not given) came in with a melting point of 94.8 °C.

Turning to `CCCCCCCCC(=O)O`, the melting point was 10 to 12.3 °C.

With `O=C(Oc1cccc(O)c1)c1ccccc1`, the melting point was in the range of 132 to 134 °C.

Turning to `CC(C)C(C)(C)C(C)(C)C`, the melting point is -36.4 to -36 °C.

`NC(=O)c1ccc(Br)cc1` gave a melting point of 191 to 192 °C.

Consider `Oc1cc(Cl)ccc1Cl`, for which the melting point lay in the range of 57 to 59 °C.

Compound `CC(C)(c1ccc(O)cc1)c1ccc(O)cc1` yielded a melting point of 153 to 156 °C.

In turn, `N#Cc1cccc(C(=O)O)c1` displayed a melting point of 219 to 223 °C.

Take `COc1cc(-c2ccc(N)c(OC)c2)ccc1N`: the melting point was in the range of 136 to 137 °C.

`COc1ccc(Br)cc1` returned a melting point of 10 to 13.5 °C.

In the case of `Brc1ccc(Br)c2ccccc12`, the melting point was 81 to 83 °C.

Take `C1=CC2C=CC1C2`: the melting point is -20 to -19.1 °C.

Compound `S=C=Nc1ccc(N=C=S)cc1` gave a melting point of 131 to 132 °C.

`C/C=C/c1ccccc1` showed a melting point of -29.3 to -27.1 °C.

As to `CCc1ccc(C)c(C)c1`, the melting point is -67 to -66.9 °C.

In the case of `ClCCOc1ccccc1`, the melting point fell in the range of 24 to 28 °C.

`COc1ccc2nc(N)sc2c1` showed a melting point of 163 to 166 °C.

The compound `C=CCCCCCCCCCCCCCCCC` showed a melting point of 16 to 18 °C.

For the compound `BrCc1ccccc1CBr`, the melting point was in the range of 94 to 95 °C.

`CC1=CC(=O)C=C(C)C1=O` registered a melting point of 70 to 72.5 °C.

Compound `O=C(O)CO` returned a melting point of 77 to 80 °C.

In the case of `Cc1cc(C)c(C)cc1C`, the melting point lay in the range of 79 to 80 °C.

With `CO`, the melting point is -98 to -97.5 °C.

Turning to `Cc1cc(Cl)nc(Cl)n1`, the melting point lay within 46 to 46.5 °C.

For `c1ccc2c(c1)Cc1cc3ccccc3cc1-2`, the melting point fell in the range of 208 to 212 °C.

`Cc1csc(S)n1` came in with a melting point of 88 to 89.3 °C.

Turning to `Ic1ccc(I)cc1`, the melting point lay within 130 to 132 °C.

In the case of `O=C(O)c1cc(Cl)cc(Cl)c1O`, the melting point fell in the range of 220 to 224 °C.

On to `CCCCC(=O)OCC`, for which the melting point was -91.2 to -91 °C.

`CCOc1ccc(NC(C)=O)cc1`: the melting point fell in the range of 134 to 138 °C.

In turn, `COc1ccc(C(=O)c2ccc(OC)cc2O)c(O)c1` yielded a melting point of 135 to 140 °C.

As to `N=C(Nc1ccccc1)Nc1ccccc1`, the melting point fell in the range of 149 to 150 °C.

`Cc1ccccc1` had a melting point of -95 to -93 °C.

In the case of `[O-][S+](Cc1ccccc1)Cc1ccccc1`, the melting point lay within 133 to 134 °C.

Regarding `C#C`, the melting point was -80.8 to -80.7 °C.

The compound `Clc1cncc(Cl)n1` had a melting point of 54 to 56.5 °C.

Consider `CC`, for which the melting point was -183 °C.

Take `O=[N+]([O-])c1cccc(C(F)(F)F)c1`: the melting point is -5 to -2.4 °C.

`CCC(=O)c1ccc(C)cc1` came in with a melting point of 7 to 7.2 °C.

As for `CN1CCN(C)C1=O`, the melting point lay in the range of 8 to 8.2 °C.

`COc1ccc(Cl)c(Cl)c1Cl`: the melting point was 69 to 70 °C.

In turn, `Clc1ccccc1Br` gave a melting point of -13 to -12.3 °C.

In turn, `NC(=O)c1cccc([N+](=O)[O-])c1` showed a melting point of 142 to 143 °C.
